The experiment has as its target T1, interactions between Talin 1 (TLN1) and integrin subunit beta (ITGB) (Homo sapiens, UniProt Q9Y490).
T1 construct: LgBit or SmBit (N-terminal of the HaloTag); made in house
In words: Flip-flop detection mechanism on DNA origami (LgBit/SmBit luminescence), inhibitor screening. The following applies: inhibition of binding between TLN1 and ITBG. In kind it is biochemical. The text has this: Two types of systems, i.e., flip-flop detection mechanism and switch detection mechanism, were constructed by using HaloTag, LgBit, SmBit, TLN1, and ITGB. Each of TLN1 (Uniprot ID: Q9Y490) and ITGB1 (Uniprot ID: P05556) was cloned from the registered genetic information. HaloTAg has three chemically modifiable locations at a ligand recognition site, C-terminus, and N-terminus. In this Example, a single-stranded DNA for attaching to DNA origami was connected to a ligand recognition site of HaloTag, a subunit of an interaction complex was connected to the C-terminus, and LgBit or SmBit was connected to the N-terminus.
The outline of the system is disclosed in Figure 23. When TLN1 and ITBG are in a bound state in this system, LgBit and SmBit are at spatially separated positions from each other, with a HaloTag interposed therebetween. In this regard, if an inhibitor is added, complex formation of TLN1 and ITBG is inhibited. As a result, a LgBit-SmBit complex can be formed, and a luminescence reaction progresses.
As a candidate drug for inhibiting the binding between TLN1 and ITBG, peptide inhibitors consisting of 13 amino acids prepared by modifying amino acids in an intracellular region of ITGB3 have been designed (Shen B. et al., A directional switch of integrin signaling and a new antithrombotic strategy. Nature 503, 131-135 (2013)). IC50 values for the peptides shown in the following table were calculated by using the flip-flop detection mechanism described in Example 11 for optimizing the sequence. In this manner, the effect of a large number of compounds on the interaction with a target protein can be readily analyzed in the system of the present disclosed.

Residues, ends and D or L forms follow the SMILES beside them.

Consider `CSCC[C@H](NC(=O)[C@H](CCCCN)NC(=O)[C@H](CCC(=O)O)NC(=O)[C@H](CCCCN)NC(=O)[C@H](CCC(=O)O)NC(=O)[C@H](Cc1ccccc1)NC(=O)[C@@H](N)CCCCN)C(=O)N[C@@H](CC(N)=O)C(=O)N[C@@H](C)C(=O)N[C@@H](CCCCN)C(=O)N[C@@H](Cc1c[nH]c2ccccc12)C(=O)N[C@@H](CC(=O)O)C(=O)N[C@H](C(=O)O)[C@@H](C)O` [FIYM1] (H-KFEKEKMNAKWDT-OH), for which the IC50 (read-out: Inhibitory activity) amounted to 709 µM.

Turning to `CSCC[C@H](NC(=O)[C@H](CCCCN)NC(=O)[C@H](CCC(=O)O)NC(=O)[C@H](CCCCN)NC(=O)[C@H](CCC(=O)O)NC(=O)[C@H](C)NC(=O)[C@@H](N)CCCCN)C(=O)N[C@@H](CC(N)=O)C(=O)N[C@@H](C)C(=O)N[C@@H](CCCCN)C(=O)N[C@@H](C)C(=O)N[C@@H](CC(=O)O)C(=O)N[C@H](C(=O)O)[C@@H](C)O` [FIYM2] (H-KAEKEKMNAKADT-OH), the Inhibitory activity entry was “no inhibition”.

For the molecule `CSCC[C@H](NC(=O)[C@H](CC(N)=O)NC(=O)[C@@H](N)CCC(=O)O)C(=O)N[C@@H](CCCCN)C(=O)N[C@@H](CCC(=O)O)C(=O)N[C@@H](CCCCN)C(=O)N[C@@H](CCCCN)C(=O)N[C@@H](CC(=O)O)C(=O)N[C@@H](Cc1c[nH]c2ccccc12)C(=O)N[C@@H](C)C(=O)N[C@@H](CCCCN)C(=O)N[C@@H](Cc1ccccc1)C(=O)N[C@H](C(=O)O)[C@@H](C)O` [FIYM3] (H-ENMKEKKDWAKFT-OH), the Inhibitory activity result is reported as “no inhibition”.

For the molecule `CC[C@H](C)[C@H](NC(=O)[C@@H]1CCCN1C(=O)[C@H](CC(N)=O)NC(=O)[C@H](CCC(=O)O)NC(=O)CNC(=O)[C@@H](NC(=O)[C@H](CC(=O)O)NC(=O)[C@H](Cc1c[nH]c2ccccc12)NC(=O)[C@@H](N)CCCCN)[C@@H](C)O)C(=O)N[C@@H](Cc1ccc(O)cc1)C(=O)N[C@@H](CCCCN)C(=O)O` [FIYM4] (H-KWDTGENPIYK-OH), the Inhibitory activity entry is reported as “no inhibition”.

In the case of `CSCC[C@H](NC(=O)[C@H](CCCCN)NC(=O)[C@H](CCC(=O)O)NC(=O)[C@H](CCCCN)NC(=O)[C@H](CCC(=O)O)NC(=O)[C@H](Cc1ccccc1)NC(=O)[C@H](CCCCN)NC(=O)[C@H](C)NC(=O)[C@H](Cc1ccccc1)NC(=O)[C@@H](N)CCC(=O)O)C(=O)N[C@@H](CC(N)=O)C(=O)N[C@@H](C)C(=O)N[C@@H](CCCCN)C(=O)N[C@@H](Cc1c[nH]c2ccccc12)C(=O)N[C@@H](CC(=O)O)C(=O)N[C@H](C(=O)O)[C@@H](C)O` [FIYM5] (H-EFAKFEKEKMNAKWDT-OH), the Inhibitory activity entry was “no inhibition”.

Consider `CC[C@H](C)[C@H](NC(=O)[C@@H]1CCCN1C(=O)[C@H](CC(N)=O)NC(=O)[C@H](CCC(=O)O)NC(=O)CNC(=O)[C@@H](NC(=O)[C@H](CC(=O)O)NC(=O)[C@H](Cc1c[nH]c2ccccc12)NC(=O)[C@H](CCCCN)NC(=O)[C@H](C)NC(=O)[C@H](CC(N)=O)NC(=O)[C@H](CCSC)NC(=O)[C@H](CCCCN)NC(=O)[C@H](CCC(=O)O)NC(=O)[C@H](CCCCN)NC(=O)[C@H](CCC(=O)O)NC(=O)[C@H](Cc1ccccc1)NC(=O)[C@@H](N)CCCCN)[C@@H](C)O)C(=O)N[C@@H](Cc1ccc(O)cc1)C(=O)N[C@@H](CCCCN)C(=O)O` [FIYM6] (H-KFEKEKMNAKWDTGENPIYK-OH), for which the Inhibitory activity entry was “no inhibition”.

As to `CC[C@H](C)[C@H](NC(=O)[C@@H]1CCCN1C(=O)[C@H](CC(N)=O)NC(=O)[C@H](CCC(=O)O)NC(=O)CNC(=O)[C@@H](NC(=O)[C@H](CC(=O)O)NC(=O)[C@H](Cc1c[nH]c2ccccc12)NC(=O)[C@H](CCCCN)NC(=O)[C@H](C)NC(=O)[C@H](CC(N)=O)NC(=O)[C@H](CCSC)NC(=O)[C@H](CCCCN)NC(=O)[C@H](CCC(=O)O)NC(=O)[C@H](CCCCN)NC(=O)[C@H](CCC(=O)O)NC(=O)[C@H](Cc1ccccc1)NC(=O)[C@H](CCCCN)NC(=O)[C@H](C)NC(=O)[C@H](Cc1ccccc1)NC(=O)[C@@H](N)CCC(=O)O)[C@@H](C)O)C(=O)N[C@@H](Cc1ccc(O)cc1)C(=O)N[C@@H](CCCCN)C(=O)O` [FIYM7] (H-EFAKFEKEKMNAKWDTGENPIYK-OH), the Inhibitory activity result is recorded as “no inhibition”.
